This note sets out measurements from US8168651B2, “Protein kinase modulators” (Cylene Pharmaceuticals, Inc., priority 2008, dated 2012).

Read-outs that look alike come from different tables or passages of the source.

Assay [1] has as its system HCT-116 human colorectal carcinoma cells. Kind of assay: Cell-proliferation assay using Alamar Blue dye.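 Also: cells exposed to compound for about 4 days, then Alamar Blue added and dye fluorescence read after about 4 h, compared with medium-only control wells.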 The format is cell-based. The conditions noted are these: Homo sapiens. In general terms: The colour change of resazurin is a common sign of viable cells or microbes.
The test system of the next assay is K-562. Kind of assay: Cell proliferation modulatory activity, K-562. Format: cell-based. The note with it: Homo sapiens, K562; K-562 cells.
The target of a further assay is recombinant human CK2 (Homo sapiens (Human), UniProt P68400). Kind of assay: CK2 assay (cell-free, 33P-ATP filter plate). The conditions noted are these: 500 nM compound, read-out: CK2: % inh 500 nM. Format: biochemical.
Chain of recombinant human CK2 (P68400 whole entry): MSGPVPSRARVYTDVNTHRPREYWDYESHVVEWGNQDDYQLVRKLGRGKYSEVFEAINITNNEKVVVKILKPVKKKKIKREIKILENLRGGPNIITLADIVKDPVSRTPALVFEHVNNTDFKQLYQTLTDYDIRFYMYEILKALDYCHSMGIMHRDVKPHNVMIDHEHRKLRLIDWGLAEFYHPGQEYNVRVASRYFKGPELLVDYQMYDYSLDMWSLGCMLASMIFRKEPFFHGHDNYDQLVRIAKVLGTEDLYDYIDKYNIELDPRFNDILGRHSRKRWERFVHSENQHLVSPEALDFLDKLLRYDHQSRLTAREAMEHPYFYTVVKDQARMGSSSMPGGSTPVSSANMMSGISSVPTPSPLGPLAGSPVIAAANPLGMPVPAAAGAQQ
Chain of recombinant human CK2 (P67870 whole entry partner): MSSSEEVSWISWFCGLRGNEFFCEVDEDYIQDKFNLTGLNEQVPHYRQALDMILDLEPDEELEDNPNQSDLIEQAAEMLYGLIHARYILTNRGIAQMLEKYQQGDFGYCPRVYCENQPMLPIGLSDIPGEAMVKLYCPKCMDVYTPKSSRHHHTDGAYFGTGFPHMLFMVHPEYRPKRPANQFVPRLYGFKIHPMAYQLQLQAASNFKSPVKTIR
The target in the next assay is recombinant human PIM1 (Homo sapiens (Human), UniProt P11309). Kind of assay: PIM-1 kinase activity in cell-free in vitro assay. Format: biochemical. The note with it: for inhibition at 0.5 µM: 500 nM compound, read-out: PIM-1: % inh 500 nM.
Chain of recombinant human PIM1 (P11309 whole entry): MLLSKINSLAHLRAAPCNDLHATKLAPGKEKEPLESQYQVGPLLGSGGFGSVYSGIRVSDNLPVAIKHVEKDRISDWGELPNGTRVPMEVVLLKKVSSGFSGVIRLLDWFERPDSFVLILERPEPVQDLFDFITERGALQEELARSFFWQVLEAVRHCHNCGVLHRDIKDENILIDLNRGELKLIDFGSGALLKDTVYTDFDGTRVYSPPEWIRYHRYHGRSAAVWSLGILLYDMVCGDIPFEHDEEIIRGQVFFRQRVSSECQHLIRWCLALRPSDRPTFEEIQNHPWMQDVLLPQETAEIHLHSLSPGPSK
Where [2] appears, read: HCT-116, second HCT-116 column (c8), read-out: HCT-116 (uM) cell proliferation modulatory activity.
The mark [3] stands for this setting: HCT-116, HCT-116, second column, read-out: HCT-116 (uM), cell proliferation modulatory activity.

With `O=C(O)c1ccc2c(c1)nc(Nc1ccccc1)c1ncccc12`, the IC50 (in assay [1] (setting [2]); in the assay with K-562) was more than 10 µM each time.
As to `CC(C)(C)OC(=O)CCNC(=O)c1cccc(Nc2nc3cc(C(=O)O)ccc3c3sccc23)c1`, the inhibition at 0.5 µM is 65.5% at recombinant human CK2 (cell-free) and 22.4% at recombinant human PIM1 (cell-free). In addition, the IC50 in assay [1] (setting [3]) is more than 10 µM.
As to `CSc1ncc2c(n1)c(Nc1ccccc1C)nc1cc(C(=O)O)ccc12`, the IC50 (in assay [1] (setting [2]); in the assay on K-562) was more than 10 µM each time. Besides, the inhibition at 0.5 µM at recombinant human PIM1 (cell-free assay) was found to be 9.67%.
`CC(C)(C)OC(=O)CCNC(=O)c1cccc(Nc2nc3cc(-c4nnn[nH]4)ccc3c3sccc23)c1`: the inhibition at 0.5 µM at recombinant human CK2 (cell-free) was 40.5%; at recombinant human PIM1 (cell-free) it was -11.7%. The IC50 in assay [1] (setting [3]) is more than 10 µM.
On to `O=C(O)c1ccc2c(c1)nc(Nc1ccn[nH]1)c1ccncc12`, for which the inhibition at 0.5 µM on recombinant human CK2 (cell-free assay) came out at 94.8%; at recombinant human PIM1 (cell-free assay), 1.37%. Besides, the IC50 (in assay [1] (setting [2]); with K-562) was more than 10 µM throughout.
For `O=C(O)c1ccc2c(c1)nc(Nc1cccc(-c3ccccc3)c1)c1ccsc12`, the results for the inhibition at 0.5 µM at recombinant human CK2 (cell-free) and on recombinant human PIM1 (cell-free) were 65.8% and 4.58%, respectively. In assay [1] (setting [3]), the IC50 is more than 10 µM.
The corresponding values for `CN(C)C(=O)Cc1cccc(Nc2nc3cc(C(=O)O)ccc3c3sccc23)c1` are 55.4%, 42.5% and more than 10 µM.
`Cn1nc(C2CC2)cc1Nc1nc2cc(C(=O)O)ccc2c2cnccc12`: the values for the inhibition at 0.5 µM on recombinant human CK2 (cell-free assay) and at recombinant human PIM1 (cell-free assay) were 96.2% and 45.8%, respectively. Besides, the IC50 (in assay [1] (setting [2]); with K-562) was more than 10 µM each time.
For `O=C(O)c1ccc2c(c1)nc(Nc1cccc(C(=O)Nc3nccs3)c1)c1ccsc12`, the results for the inhibition at 0.5 µM on recombinant human CK2 (cell-free) and at recombinant human PIM1 (cell-free) were 52.9% and 5.99%, respectively. Moreover, the IC50 in assay [1] (setting [3]) was more than 10 µM.
For `CNC(=O)c1ccc2c(c1)nc(N(C)c1ccccc1)c1nc(NC3CC3)ncc12`, the IC50 in assay [1] (setting [2]) is 9.74 µM; with K-562, more than 10 µM. On recombinant human PIM1 (cell-free assay), the inhibition at 0.5 µM was 12.6%.
On to `COCCNC(=O)c1cccc(Nc2nc3cc(C(=O)O)ccc3c3sccc23)c1`, for which the inhibition at 0.5 µM on recombinant human CK2 (cell-free) turned out to be 65.2%; at recombinant human PIM1 (cell-free) it was 12%. For the same compound, in assay [1] (setting [3]), the IC50 was more than 10 µM.
In the case of `CN(C)C(=O)c1cccc(Nc2nc3cc(C(=O)O)ccc3c3sccc23)c1`, the inhibition at 0.5 µM on recombinant human CK2 (cell-free) was 21.3%; at recombinant human PIM1 (cell-free) it was -12.2%. Also, the IC50 in assay [1] (setting [3]) was more than 10 µM.
Turning to `Cc1ccccc1Nc1nc2cc(C(=O)NC3CC3)ccc2c2cnc(NC3CC3)nc12`, the IC50 (in assay [1] (setting [2]); with K-562) was more than 10 µM throughout. The inhibition at 0.5 µM at recombinant human PIM1 (cell-free assay) amounted to 5.72%.
Regarding `COC(=O)c1ccc2c(c1)nc(Nc1ccccc1)c1nc(SC)ncc12`, the figures for the inhibition at 0.5 µM on recombinant human CK2 (cell-free) and on recombinant human PIM1 (cell-free) were 6.43% and -26.7%, respectively. The IC50 in assay [1] (setting [3]) came to 9.56 µM.
The corresponding values for `O=C(O)c1ccc2c(c1)nc(Nc1cccc(C(=O)NCc3cccnc3)c1)c1ccsc12` are 62.2%, 25.8% and more than 10 µM.
On to `COC(=O)c1ccc2c(c1)nc(N(C)c1ccccc1)c1nc(S(C)(=O)=O)ncc12`, for which the IC50 stood at 4.36 µM in assay [1] (setting [2]) and 0.334 µM in the assay on K-562. Also, at recombinant human PIM1 (cell-free assay), the inhibition at 0.5 µM came out at 9.84%.
Turning to `O=C(O)c1ccc2c(c1)nc(N1CCc3ccccc31)c1ccncc12`, the inhibition at 0.5 µM on recombinant human CK2 (cell-free assay) worked out at 90.2%; at recombinant human PIM1 (cell-free assay), 9.63%. Moreover, the IC50 (in assay [1] (setting [2]); with K-562) was more than 10 µM in each case.
With `Cc1cc(CNC(=O)c2cccc(Nc3nc4cc(C(=O)O)ccc4c4sccc34)c2)no1`, the inhibition at 0.5 µM at recombinant human CK2 (cell-free) is 62.7%; on recombinant human PIM1 (cell-free) it was 10.6%. The IC50 in assay [1] (setting [3]) was more than 10 µM.
Regarding `O=C(O)c1ccc2c(c1)nc(NCCn1ccnc1)c1ccncc12`, the values for the IC50 (in assay [1] (setting [2]); at recombinant human PIM1 (cell-free assay); in the assay on K-562) were more than 10 µM, more than 1.1 µM and more than 10 µM, respectively. Also, the inhibition at 0.5 µM at recombinant human PIM1 (cell-free assay) stood at 51.8%.
Turning to `Cc1ccccc1Nc1nc2cc(C(=O)N(C)C)ccc2c2cnc(NC3CC3)nc12`, the IC50 (in assay [1] (setting [2]); in the assay with K-562) was more than 10 µM each time. In addition, the inhibition at 0.5 µM on recombinant human PIM1 (cell-free assay) amounted to 0.71%.
For the compound `COC(=O)c1ccc2c(c1)nc(Nc1ccccc1)c1nc(S(C)(=O)=O)ncc12`, the figures for the inhibition at 0.5 µM at recombinant human CK2 (cell-free) and on recombinant human PIM1 (cell-free) were -44.2% and -27.8%, respectively. In addition, the IC50 in assay [1] (setting [3]) was found to be 0.967 µM.
As to `O=C(O)c1ccc2c(c1)nc(Nc1cccc(F)c1)c1nccnc12`, the inhibition at 0.5 µM came out at 88.7% at recombinant human CK2 (cell-free assay) and 21.9% at recombinant human PIM1 (cell-free assay). Also, the IC50 in assay [1] (setting [2]) is more than 10 µM.
Take `O=C(O)c1ccc2c(c1)nc(NCCc1ccccc1)c1nccnc12`: the inhibition at 0.5 µM is 5.49% on recombinant human CK2 (cell-free assay) and -26% on recombinant human PIM1 (cell-free assay). For the same compound, the IC50 in assay [1] (setting [2]) was more than 10 µM.
For the compound `CNC(=O)c1ccc2c(c1)nc(Nc1ccccc1C)c1nc(NC3CC3)ncc12`, the IC50 was 1.61 µM in assay [1] (setting [2]) and more than 10 µM with K-562. Further, the inhibition at 0.5 µM at recombinant human PIM1 (cell-free assay) stood at 4.21%.
`O=C(O)c1ccc2c(c1)nc(Nc1ccccc1)c1nccnc12`: the values for the inhibition at 0.5 µM at recombinant human CK2 (cell-free assay) and at recombinant human PIM1 (cell-free assay) were 41.5% and -7.65%, respectively. The IC50 in assay [1] (setting [2]) is more than 10 µM.
Take `O=C(O)c1ccc2c(c1)nc(NN1CCCCC1)c1ccncc12`: the IC50 was more than 10 µM in assay [1] (setting [2]), more than 1.1 µM on recombinant human PIM1 (cell-free assay) and more than 10 µM in the assay with K-562.
Regarding `COC(=O)c1ccc2c(c1)nc(Nc1cccc(CC(=O)O)c1)c1ccsc12`, the values for the inhibition at 0.5 µM on recombinant human CK2 (cell-free) and at recombinant human PIM1 (cell-free) were -6.27% and 8.94%, respectively. In assay [1] (setting [3]), the IC50 is more than 10 µM.
The matching figures for `O=C(O)c1ccc2c(c1)nc(Nc1cccc(C(=O)Nc3ccccc3)c1)c1ccsc12`: 37.7%, -20.9% and more than 10 µM.
As for `CN(C)C(=O)c1ccc2c(c1)nc(N(C)c1ccccc1)c1nc(NC3CC3)ncc12`, the IC50 in assay [1] (setting [2]) was 5.19 µM; with K-562 it was more than 10 µM. At recombinant human PIM1 (cell-free assay), the inhibition at 0.5 µM is -0.201%.
For `O=C(O)c1ccc2c(c1)nc(Nc1ccccc1Oc1ccccc1)c1ccncc12`, the inhibition at 0.5 µM at recombinant human CK2 (cell-free assay) was determined as 96.5%; on recombinant human PIM1 (cell-free assay), 25%. Also, in assay [1] (setting [2]), the IC50 was more than 10 µM.
The matching figures for `CN(c1ccccc1)c1nc2cc(C(=O)O)ccc2c2nccnc12`: 19.3%, 1.15% and more than 10 µM.
Regarding `CC(=O)N1CCN(C(=O)c2cccc(Nc3nc4cc(C(=O)O)ccc4c4sccc34)c2)CC1`, the results for the inhibition at 0.5 µM at recombinant human CK2 (cell-free) and at recombinant human PIM1 (cell-free) were 36.5% and 20.8%, respectively. In addition, the IC50 in assay [1] (setting [3]) was more than 10 µM.
In the case of `CN(c1ccccc1)c1nc2cc(C(=O)NC3CC3)ccc2c2cnc(NC3CC3)nc12`, the IC50 (in assay [1] (setting [2]); with K-562) was more than 10 µM each time. Moreover, the inhibition at 0.5 µM at recombinant human PIM1 (cell-free assay) amounted to 16.1%.
As for `O=C(Cc1cccc(Nc2nc3cc(C(=O)O)ccc3c3sccc23)c1)NC1CC1`, the inhibition at 0.5 µM at recombinant human CK2 (cell-free) is 51.2%; on recombinant human PIM1 (cell-free) it was 19.1%. Also, the IC50 in assay [1] (setting [3]) was more than 10 µM.
`CN(c1ccccc1)c1nc2cc(C(=O)O)ccc2c2cnc(NC3CC3)nc12`: the IC50 (in assay [1] (setting [2]); in the assay on K-562) was more than 10 µM throughout. Further, the inhibition at 0.5 µM at recombinant human PIM1 (cell-free assay) was found to be 31.4%.
As for `O=C(O)c1ccc2c(c1)nc(N1CCc3c([nH]c4ccccc34)C1)c1ccncc12`, the IC50 (in assay [1] (setting [2]); in the assay on K-562) was more than 10 µM in each case. At recombinant human PIM1 (cell-free assay), the inhibition at 0.5 µM was found to be 38.8%.
